Source: patent US7968107B2, “Oil-based suspension concentrates” (Bayer Cropscience AG, priority 2004, dated 2011)

assay: Penetrants at the level of the cuticle (desorption method, tracer mobility with and without additive); conditions: mobility of radiolabelled weak organic acid tracer in peach leaf cuticle; receptor buffer pH 7
Excerpt: Additives which act as penetrants at the level of the cuticle may be referred to below as accelerator additives (cf. Schönherr and Baur, 1994, Pesticide Science 42, 185-208). The feature of accelerator additives is their ability to penetrate from the aqueous spray liquor and/or from the spray covering into the cuticle and thereby to increase the mobility of active substances in the cuticle. Other additives such as polyethylene glycol, in contrast, act only in the spray covering (via the liquid phase) or act only as wetting agents, such as sodium dodecyl sulphate, for example.
This test determines the influence of additives on the penetration properties of other substances at the level of the cuticle. The mobility of the test substance in the cuticle is measured with and without an additive, by way of a desorption method. The method is published in detail in the literature (Baur et al., 1997, Pesticide Science, 51, 131-152) and only the principles and any deviations are described below.
As a test substance with the function of a tracer a selection was made here of a radiolabelled weak organic acid. Plant material used comprised the enzymatically isolated leaf cuticles of the top face of peach leaves from outdoor trees. The cuticles were installed in specially manufactured stainless steel diffusion cells. The tracer, in a citrate buffer at a pH of 3 in the dissolved state, was applied to the side originally facing the inside of the leaf. This inner side readily takes up the small radioactive amount of the tracer in the undissociated acid form. Subsequently this inner side was covered and maintained at 100% atmospheric humidity. The morphological outer side of the leaf cuticle, normally exposed to the air, was then contacted with a buffer (pH 7), with the receptor solution, and the desorption was started. The penetrated acid form of the test substance is dissociated by the receptor and the desorption follows first-order kinetics. The desorption constant is proportional to the mobility of the tracer in the cuticle. […]

Row | Substance | Average effect (ratio of desorption slopes with additive to without additive)
1 | CH3—(CH2)10—O—(-EO—)6—(—BO—)2—CH3 [Ie-1] | 78.4
2 | CH3—(CH2)8—O—(-EO—)8—(—BO—)2—CH3 [Ie-2] | 89.1
3 | isotridecyl-(6) ethoxylate [Isotridecyl-(6) ethoxylate, open, reference compound] | 42.3
